According to article PMC3254106 (ACS medicinal chemistry letters, 2011):
Values belong to the molecule of their own block, whether it stands above or below them.

Columns and labels:
[1] = target: T1, AXL kinase (Homo sapiens, UniProt P30530); assay: AXL kinase biochemical assay
T1 sequence (P30530 26-894): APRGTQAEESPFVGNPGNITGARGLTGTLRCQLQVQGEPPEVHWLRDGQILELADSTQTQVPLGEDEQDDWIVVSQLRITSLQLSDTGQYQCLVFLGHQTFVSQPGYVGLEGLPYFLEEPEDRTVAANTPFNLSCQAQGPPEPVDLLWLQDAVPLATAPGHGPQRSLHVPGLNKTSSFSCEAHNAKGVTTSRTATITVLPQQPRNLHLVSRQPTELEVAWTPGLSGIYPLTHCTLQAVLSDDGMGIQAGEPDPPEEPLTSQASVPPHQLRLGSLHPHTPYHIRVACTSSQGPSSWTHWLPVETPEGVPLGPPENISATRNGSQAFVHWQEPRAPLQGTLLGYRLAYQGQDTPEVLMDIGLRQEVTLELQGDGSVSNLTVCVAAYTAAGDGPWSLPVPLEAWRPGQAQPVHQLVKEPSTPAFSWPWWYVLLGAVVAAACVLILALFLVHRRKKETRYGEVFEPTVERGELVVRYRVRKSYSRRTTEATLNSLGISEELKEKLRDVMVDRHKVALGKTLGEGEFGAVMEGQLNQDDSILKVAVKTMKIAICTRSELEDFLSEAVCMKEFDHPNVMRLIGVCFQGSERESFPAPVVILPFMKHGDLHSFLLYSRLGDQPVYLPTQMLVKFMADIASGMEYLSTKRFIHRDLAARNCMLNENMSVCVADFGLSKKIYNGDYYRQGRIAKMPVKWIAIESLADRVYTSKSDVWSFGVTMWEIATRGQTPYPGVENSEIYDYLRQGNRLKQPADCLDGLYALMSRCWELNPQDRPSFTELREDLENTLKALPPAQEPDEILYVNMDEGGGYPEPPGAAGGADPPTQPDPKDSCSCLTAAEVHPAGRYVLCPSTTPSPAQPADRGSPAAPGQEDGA

[2] = tested on: panel of 75 kinases; assay: Kinase panel profiling at 200 nM; conditions: 200 nM profiling
[3] = tested on: Pancreatic cancer cells (PSN-1); assay: Cell cycle analysis, propidium iodide flow cytometry; assay type: cell-based; conditions: PSN-1, 30 nM, 24 hours
[4] = tested on: Aurora; assay: Aurora activity of analogues; assay type: biochemical

- IC50 [1]: 33 µM
SMILES: CN1CCN(c2ccc(Nc3nc(-c4ccc(F)c(Cl)c4)cc(-c4ccc[nH]4)n3)cc2F)CC1 [Compound 1]

- IC50 [1]: 47 µM
SMILES: CN1CCN(c2ccc(Nc3nc(-c4ccc(F)c(Cl)c4)cc(-c4ccc(F)c(Cl)c4)n3)cc2F)CC1 [Compound 2]

- activity against MER, TYRO3, Aurora A and B, JAK2, ALK, ABL1 and CHEK1 [2]: strong activity
SMILES: CN1CCN(Cc2ccc(Nc3ncc(Cl)c(Nc4ccccc4S(=O)(=O)N(C)C)n3)cc2)CC1 [Compound 13]
- G2/M (4N) population of cells [3]: significant increase
- cells with ≥4N DNA (8N peak, endoreduplication) [3]: accumulation of cells with ≥4N DNA

SMILES: Cc1cnc(Nc2ccc(CN3CCN(C)CC3)cc2)nc1-c1ccc(F)cc1S(=O)(=O)N1CCCC1 [Compound 15]
- Aurora activity [4]: strong aurora activity

SMILES: CN1CCN(Cc2ccc(Nc3ncc(F)c(-c4ccc(F)cc4S(=O)(=O)N4CCCC4)n3)cc2)CC1 [Compound 16]
- Aurora activity [4]: strong aurora activity

SMILES: CN1CCN(Cc2ccc(Nc3ncc(Cl)c(-c4ccc(F)cc4S(=O)(=O)N(C)C)n3)cc2)CC1 [Compound 26]
- Aurora activity [4]: strong aurora activity

SMILES: CN1CCN(Cc2ccc(Nc3ncc(Cl)c(-c4ccc(F)cc4S(=O)(=O)N4CCCC4)n3)cc2)CC1 [Compound 27]
- Aurora activity [4]: strong aurora activity
